According to ChEMBL document CHEMBL1147294, “Plant antimutagenic agents, 5. Isolation and structure of two new isoflavones, fremontin and fremontone from Psorothamnus fremontii” (J Nat Prod, 1989):

How the values were obtained:
Salmonella typhimurium [1] = test: Antimutagenic activity in Salmonella Typhimurium T-98 assessed as inhibition of 2-aminoanthracene-induced mutation at 75 ug/plate; assay type: functional, Salmonella enterica subsp. enterica serovar Typhimurium
Salmonella typhimurium [2] = test: Antimutagenic activity in Salmonella Typhimurium T-100 assessed as inhibition of ethyl methanesulfonate-induced mutation at 300 ug/plate; assay type: functional, Salmonella enterica subsp. enterica serovar Typhimurium
Salmonella typhimurium [3] = test: Antimutagenic activity in Salmonella Typhimurium T-98 assessed as inhibition of acetylaminofluorene-induced mutation at 37.5 ug/plate; assay type: functional, Salmonella enterica subsp. enterica serovar Typhimurium
Salmonella typhimurium [4] = test: Antimutagenic activity in Salmonella Typhimurium assessed as inhibition of 2-aminoanthracene-induced mutation at 0.3 mg/plate; assay type: functional, Salmonella enterica subsp. enterica serovar Typhimurium
Salmonella typhimurium [5] = test: Antimutagenic activity in Salmonella Typhimurium T-100 assessed as inhibition of ethyl methanesulfonate-induced mutation at 150 ug/plate; assay type: functional, Salmonella enterica subsp. enterica serovar Typhimurium
Salmonella typhimurium [6] = test: Antimutagenic activity in Salmonella Typhimurium T-98 assessed as inhibition of acetylaminofluorene-induced mutation at 75 ug/plate; assay type: functional, Salmonella enterica subsp. enterica serovar Typhimurium
Salmonella typhimurium [7] = test: Antimutagenic activity in Salmonella Typhimurium T-98 assessed as inhibition of 2-aminoanthracene-induced mutation at 37.5 ug/plate; assay type: functional, Salmonella enterica subsp. enterica serovar Typhimurium
Salmonella typhimurium [8] = test: Antimutagenic activity in Salmonella Typhimurium T-98 assessed as inhibition of acetylaminofluorene-induced mutation at 150 ug/plate; assay type: functional, Salmonella enterica subsp. enterica serovar Typhimurium
Salmonella typhimurium [9] = test: Antimutagenic activity in Salmonella Typhimurium T-98 assessed as inhibition of acetylaminofluorene-induced mutation at 300 ug/plate; assay type: functional, Salmonella enterica subsp. enterica serovar Typhimurium
Salmonella typhimurium [10] = test: Antimutagenic activity in Salmonella Typhimurium T-98 assessed as inhibition of 2-aminoanthracene-induced mutation at 300 ug/plate; assay type: functional, Salmonella enterica subsp. enterica serovar Typhimurium
Salmonella typhimurium [11] = test: Antimutagenic activity in Salmonella Typhimurium T-98 assessed as inhibition of 2-aminoanthracene-induced mutation at 150 ug/plate; assay type: functional, Salmonella enterica subsp. enterica serovar Typhimurium
Salmonella typhimurium [12] = test: Toxicity to Salmonella Typhimurium at 0.3 to 0.075 mg/plate; assay type: organism-based, Salmonella enterica subsp. enterica serovar Typhimurium; details: in vivo
Salmonella typhimurium [13] = test: Antimutagenic activity in Salmonella Typhimurium T-100 assessed as inhibition of ethyl methanesulfonate-induced mutation at 75 ug/plate; assay type: functional, Salmonella enterica subsp. enterica serovar Typhimurium
Salmonella typhimurium [14] = test: Antimutagenic activity in Salmonella Typhimurium assessed as inhibition of 2-aminoanthracene-induced mutation at 0.6 mg/plate; assay type: functional, Salmonella enterica subsp. enterica serovar Typhimurium
Salmonella typhimurium [15] = test: Antimutagenic activity in Salmonella Typhimurium T-100 assessed as inhibition of ethyl methanesulfonate-induced mutation at 37.5 ug/plate; assay type: functional, Salmonella enterica subsp. enterica serovar Typhimurium
Salmonella typhimurium [16] = test: Toxicity to Salmonella Typhimurium at 0.6 mg/plate; assay type: organism-based, Salmonella enterica subsp. enterica serovar Typhimurium; details: in vivo

Structure (SMILES)	inhibition (INH) (Salmonella typhimurium [1]) [%]	inhibition (INH) (Salmonella typhimurium [2]) [%]	inhibition (INH) (Salmonella typhimurium [3]) [%]	inhibition (INH) (Salmonella typhimurium [4]) [%]	inhibition (INH) (Salmonella typhimurium [5]) [%]	inhibition (INH) (Salmonella typhimurium [6]) [%]	inhibition (INH) (Salmonella typhimurium [7]) [%]	inhibition (INH) (Salmonella typhimurium [8]) [%]	inhibition (INH) (Salmonella typhimurium [9]) [%]	inhibition (INH) (Salmonella typhimurium [10]) [%]	inhibition (INH) (Salmonella typhimurium [11]) [%]	Activity (Salmonella typhimurium [12])	inhibition (INH) (Salmonella typhimurium [13]) [%]	inhibition (INH) (Salmonella typhimurium [14]) [%]	inhibition (INH) (Salmonella typhimurium [15]) [%]	Activity (Salmonella typhimurium [16])
C=CC(C)(C)c1cc(-c2coc3cc(O)cc(O)c3c2=O)c(O)cc1O [FREMONTIN]	0	87	0	92	81	0	65	0	0	93	24	Non-toxic	90	92	58	–
C=CC(C)(C)c1cc(-c2coc3cc(O)cc(O)c3c2=O)c(O)c(CC=C(C)C)c1O [FREMONTONE]	78	94	0	–	86	3	89	27	70	93	17	Non-toxic	81	–	63	Non-toxic
